Results published in ChEMBL document CHEMBL5338718, “Design and exploration of gut-restricted bifunctional molecule with TGR5 agonistic and DPP4 inhibitory effects for treating ulcerative colitis” (Eur J Med Chem, 2022).
Active and inactive are the calls of the source. The rule behind the calls is not given here.

Assays:
[1] = target: T1, G-protein coupled bile acid receptor 1 (Homo sapiens, UniProt Q8TDU6); assay: Agonist activity at human TGR5 expressed in human HEK293 cells co-expressing CRE-driven luciferase reporter gene assessed as luciferase activity incubated for 5.5 hrs by Steady-Glo based luciferase assay; format: functional, cell-based
T1 sequence (Q8TDU6 whole entry): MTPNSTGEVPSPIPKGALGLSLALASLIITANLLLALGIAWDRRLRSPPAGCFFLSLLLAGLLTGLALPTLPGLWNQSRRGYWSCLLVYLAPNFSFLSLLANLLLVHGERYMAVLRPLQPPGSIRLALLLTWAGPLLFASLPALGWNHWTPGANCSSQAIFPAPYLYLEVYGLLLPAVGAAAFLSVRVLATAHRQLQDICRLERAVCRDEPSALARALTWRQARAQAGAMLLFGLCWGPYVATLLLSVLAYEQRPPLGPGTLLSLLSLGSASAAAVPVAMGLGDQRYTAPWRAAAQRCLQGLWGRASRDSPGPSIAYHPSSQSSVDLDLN

Mus musculus [2] = assay: Anti-colitis activity against DSS-induced ulcerative colitis BALB/c mouse model assessed as suppression of DSS induced diarrhea at 30 mg/kg,po for 10 days; format: functional, organism-based; details: time 10.0 day
[3] = Cmax in overnight-fasted ICR mouse ileum at 30 mg/kg, po and measured upto 8 hrs by LC-MS/MS analysis; format: ADME, organism-based; parameters: dose 30 mg/kg, time < 8 hrs, route po
Mus musculus [4] = assay: In vivo inhibition of DDP4 in ICR mouse assessed as decrease in enzyme activity in serum at 200 mg/kg,po and measured after 8 hrs using Gly-Pro-AMC as substrate by fluorescence based microplate reader assay; format: functional, organism-based
[5] = Cmax in overnight-fasted ICR mouse plasma at 30 mg/kg, po and measured upto 8 hrs by LC-MS/MS analysis; format: ADME, organism-based; parameters: dose 30 mg/kg, time < 8 hrs, route po
Mus musculus [6] = assay: In vivo agonist activity at TGR5 in overnight fasted ICR mouse assessed as increase in GLP-1 activity in serum at 100 mg/kg,po preincubated with sitagliptin at 30 mg/kg,po for one hr followed by compound addition and measured after 8 hrs by ELISA; format: functional, organism-based
[7] = Apparent permeability across basolateral to apical side in human Caco-2 cells at 20 uM and measured upto 95 mins by LC-MS/MS analysis; format: ADME, cell-based
Mus musculus [8] = assay: In vivo inhibition of DDP4 in ICR mouse assessed as decrease in enzyme activity in serum at 200 mg/kg,po and measured at 2 hrs using Gly-Pro-AMC as substrate by fluorescence based microplate reader assay; format: functional, organism-based
Mus musculus [9] = assay: In vivo inhibition of DDP4 in ICR mouse assessed as decrease in enzyme activity in ileum at 50 mg/kg,po and measured after 8 hrs using Gly-Pro-AMC as substrate by fluorescence based microplate reader assay; format: functional, organism-based
Mus musculus [10] = assay: In vivo inhibition of DDP4 in ICR mouse assessed as decrease in enzyme activity in serum at 200 mg/kg,po and measured at 4 hrs using Gly-Pro-AMC as substrate by fluorescence based microplate reader assay; format: functional, organism-based
[11] = target: T2, G-protein coupled bile acid receptor 1 (Mus musculus, UniProt Q80SS6); assay: Agonist activity at mouse TGR5 expressed in human HEK293 cells co-expressing CRE-driven luciferase reporter gene assessed as luciferase activity incubated for 5.5 hrs by Steady-Glo based luciferase assay; format: functional, cell-based
T2 sequence (Q80SS6 whole entry): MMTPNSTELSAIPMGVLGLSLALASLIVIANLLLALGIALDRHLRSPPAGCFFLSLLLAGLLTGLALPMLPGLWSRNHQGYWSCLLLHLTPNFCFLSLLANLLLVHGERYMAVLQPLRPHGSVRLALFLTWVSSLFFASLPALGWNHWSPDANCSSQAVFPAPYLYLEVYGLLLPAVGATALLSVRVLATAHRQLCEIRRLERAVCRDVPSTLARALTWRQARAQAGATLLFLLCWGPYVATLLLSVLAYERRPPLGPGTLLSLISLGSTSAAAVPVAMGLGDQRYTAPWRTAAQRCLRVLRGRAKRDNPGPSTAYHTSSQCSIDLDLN

Mus musculus [12] = assay: Anti-colitis activity against DSS-induced ulcerative colitis BALB/c mouse model assessed as suppression of DSS induced weight loss at 30 mg/kg,po for 10 days; format: functional, organism-based; details: time 10.0 day
Mus musculus [13] = assay: Anti-colitis activity against DSS-induced ulcerative colitis BALB/c mouse model assessed as reduction in stool softness by measuring DAI score at 30 mg/kg,po and measured after 5 to 10 days; format: functional, organism-based; details: time 5-10 day
Mus musculus [14] = assay: Induction of gut restriction in overnight fasted ICR mouse assessed as effect on gallbladder-filling by measuring gallbladder volume at 30 to 200 mg/kg, po and measured after 4 hrs by Vernier caliper analysis; format: functional, organism-based; details: dose 30-200 mg/kg
[15] = Cmax in overnight-fasted ICR mouse Gall bladder at 30 mg/kg, po and measured upto 8 hrs by LC-MS/MS analysis; format: ADME, organism-based; parameters: dose 30 mg/kg, time < 8 hrs, route po
Dipeptidyl peptidase 4 = Dipeptidyl peptidase 4 (Mus musculus, UniProt P28843); assay: Inhibition of mouse serum DPP4 assessed as cleavage of substrate by measuring AMC release using Gly-Pro-AMC as substrate by fluorescence based microplate reader assay; format: cell-free
Chain of Dipeptidyl peptidase 4 (P28843 whole entry): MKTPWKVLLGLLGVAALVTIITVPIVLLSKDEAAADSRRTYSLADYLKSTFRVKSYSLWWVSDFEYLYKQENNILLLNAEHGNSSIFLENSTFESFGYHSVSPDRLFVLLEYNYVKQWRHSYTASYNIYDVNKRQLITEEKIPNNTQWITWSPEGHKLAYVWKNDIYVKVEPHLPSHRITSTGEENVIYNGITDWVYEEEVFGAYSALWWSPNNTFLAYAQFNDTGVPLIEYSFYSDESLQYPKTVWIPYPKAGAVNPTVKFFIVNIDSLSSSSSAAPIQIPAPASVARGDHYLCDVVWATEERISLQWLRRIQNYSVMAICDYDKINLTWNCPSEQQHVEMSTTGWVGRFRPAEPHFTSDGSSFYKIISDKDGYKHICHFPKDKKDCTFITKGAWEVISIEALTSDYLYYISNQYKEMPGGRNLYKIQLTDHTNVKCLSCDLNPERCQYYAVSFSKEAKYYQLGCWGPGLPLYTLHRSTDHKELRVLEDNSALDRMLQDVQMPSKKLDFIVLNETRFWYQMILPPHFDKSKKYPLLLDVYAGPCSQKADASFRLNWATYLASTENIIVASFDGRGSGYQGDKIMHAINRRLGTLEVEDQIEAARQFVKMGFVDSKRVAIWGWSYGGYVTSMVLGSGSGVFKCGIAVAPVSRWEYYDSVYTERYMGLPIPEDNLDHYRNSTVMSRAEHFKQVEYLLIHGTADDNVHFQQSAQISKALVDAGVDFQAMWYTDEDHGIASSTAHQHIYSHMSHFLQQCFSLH

Mus musculus [16] = assay: Anti-colitis activity against DSS-induced ulcerative colitis BALB/c mouse model assessed as reduction in fecal occult blood by measuring DAI score at 30 mg/kg,po and measured after 5 to 10 days; format: functional, organism-based; details: time 5-10 day
Mus musculus [17] = assay: In vivo inhibition of DDP4 in ICR mouse assessed as decrease in enzyme activity in ileum at 25 mg/kg,po and measured after 8 hrs using Gly-Pro-AMC as substrate by fluorescence based microplate reader assay; format: functional, organism-based
[18] = Water solubility at pH 6.8; format: physicochemical
Mus musculus [19] = assay: Induction of gut restriction in overnight fasted ICR mouse assessed as effect on gallbladder-filling by measuring bile weight at 30 to 200 mg/kg, po and measured after 4 hrs by Vernier caliper analysis; format: functional, organism-based; details: dose 30-200 mg/kg
[20] = Water solubility at pH 7.4; format: physicochemical
[21] = Apparent permeability across apical to basolateral side in human Caco-2 cells at 20 uM and measured upto 95 mins by LC-MS/MS analysis; format: ADME, cell-based
Mus musculus [22] = assay: Anti-colitis activity against DSS-induced ulcerative colitis BALB/c mouse model assessed as decrease in histological score at 30 mg/kg,po for 10 days by Hematoxylin and eosin staining based microscopy; format: functional, organism-based; details: time 10.0 day
Mus musculus [23] = assay: Anti-colitis activity against DSS-induced ulcerative colitis BALB/c mouse model assessed as reduction in body weight loss by measuring DAI score at 30 mg/kg,po and measured after 5 to 10 days; format: functional, organism-based; details: time 5-10 day
Mus musculus [24] = assay: Anti-colitis activity against DSS-induced ulcerative colitis BALB/c mouse model assessed as recovery of colon length at 30 mg/kg,po for 10 days; format: functional, organism-based; details: time 10.0 day
Mus musculus [25] = assay: Anti-colitis activity against DSS-induced ulcerative colitis BALB/c mouse model assessed as suppression of DSS induced fecal occult blood at 30 mg/kg,po for 10 days; format: functional, organism-based; details: time 10.0 day
Mus musculus [26] = assay: Anti-colitis activity against DSS-induced ulcerative colitis BALB/c mouse model assessed as recovery of tissue damage at 30 mg/kg,po for 10 days by Hematoxylin and eosin staining based microscopy; format: functional, organism-based; details: time 10.0 day
Mus musculus [27] = assay: In vivo inhibition of DDP4 in ICR mouse assessed as decrease in enzyme activity in ileum at 200 mg/kg,po and measured after 8 hrs using Gly-Pro-AMC as substrate by fluorescence based microplate reader assay; format: functional, organism-based
Mus musculus [28] = assay: Anti-colitis activity against DSS-induced ulcerative colitis BALB/c mouse model assessed as decrease in inflammatory cell infiltration at 30 mg/kg,po for 10 days by Hematoxylin and eosin staining based microscopy; format: functional, organism-based; details: time 10.0 day

For `CC1C(=O)N(CC(=O)N(CCOCCOCCOCCOCCOCCOCCOCCOCCN(CC(=O)O)C(=O)CCc2cc(Cl)c(Oc3ccsc3C(=O)N3CCN(C4CC4)c4ccccc43)cc2Cl)CC(=O)O)CCCN1C(=O)C[C@H](N)Cc1cc(F)c(F)cc1F` (mixture of isomers), the EC50 [1] was 48.5 nM, the Activity (Mus musculus [2]) was “Active” and the Cmax [3] was 11700 ng/mL. The inhibition (Mus musculus [4]) was “Active”, the Cmax [5] was 8.3 ng/mL and the Activity (Mus musculus [6]) was “Active”. For the same compound, the Papp B→A at 1.583 h, 20 µM [7] was 0.01 ×10⁻⁶ cm/s, the inhibition (Mus musculus [8]) was “inactive” and the inhibition (Mus musculus [9]) was “Active”. For the same compound, the inhibition (Mus musculus [10]) was “inactive”, the EC50 [11] was 3.4 nM and the Activity (Mus musculus [12]) was “Active”. The Activity (Mus musculus [13]) was “Active”, the Activity (Mus musculus [14]) was “Active” and the Cmax [15] was 820 ng/mL. The IC50 (Dipeptidyl peptidase 4) was 21.5 nM, the Activity (Mus musculus [16]) was “Active” and the inhibition (Mus musculus [17]) was “Active”. The solubility [18] was greater than 100 µM, the Activity (Mus musculus [19]) was “Active” and the solubility [20] was greater than 100 µM. For the same compound, the Papp A→B at 1.583 h, 20 µM [21] was 0.01 ×10⁻⁶ cm/s, the Activity (Mus musculus [22]) was “Active” and the Activity (Mus musculus [23]) was “Active”. The Activity (Mus musculus [24]) was “Active”, the Activity (Mus musculus [25]) was “Active” and the Activity (Mus musculus [26]) was “Active”. For the same compound, the inhibition (Mus musculus [27]) was “Active” and the Activity (Mus musculus [28]) was “Active”.
